Test results reported in article PMC4032193 (Journal of Medicinal Chemistry, 2014).
pIC50: −log10 of the molar value. Where two headings read alike, the source gives them in different places.

Columns and labels:
[1] = test system: P. falciparum African D6 clone; assay: microbe, parasite or virus in culture; type: cell-based; conditions: Plasmodium falciparum, D6, read-out: D6 IC50
[2] = test system: P. falciparum Indochina W2 clone; assay: microbe, parasite or virus in culture; type: cell-based; conditions: Plasmodium falciparum, W2, read-out: W2 IC50
[3] = test system: P. falciparum multidrug resistant TM91C235 strain (Thailand); assay: microbe, parasite or virus in culture; type: cell-based; conditions: Plasmodium falciparum, read-out: TM91C235 IC50
[4] = test system: HepG2 (hepatocellular carcinoma) cell line; conditions: human
in vitro = conditions: mouse, microsomes
[5] = human
[6] = mouse
P. berghei = conditions: mouse, in vivo
BoNT/A LC = BoNT/A LC (Clostridium botulinum, UniProt P0DPI0); assay: biochemical
Chain of BoNT/A LC (P0DPI0 2-448 limits assumed): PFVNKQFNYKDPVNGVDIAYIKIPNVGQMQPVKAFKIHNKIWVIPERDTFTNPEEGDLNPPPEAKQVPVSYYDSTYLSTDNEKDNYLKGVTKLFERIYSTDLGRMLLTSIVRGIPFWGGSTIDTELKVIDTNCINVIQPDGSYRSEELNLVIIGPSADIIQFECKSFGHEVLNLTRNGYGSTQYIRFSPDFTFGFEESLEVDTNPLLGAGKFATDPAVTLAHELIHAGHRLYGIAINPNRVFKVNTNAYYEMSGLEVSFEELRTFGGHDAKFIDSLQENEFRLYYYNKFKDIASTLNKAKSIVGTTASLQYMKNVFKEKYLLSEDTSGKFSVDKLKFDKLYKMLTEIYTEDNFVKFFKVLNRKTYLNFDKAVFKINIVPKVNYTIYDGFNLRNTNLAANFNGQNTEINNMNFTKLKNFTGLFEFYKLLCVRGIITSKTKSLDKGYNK

Row | SMILES | SI HepG2/D6 [4] | SI HepG2/TM91C235 [4] | SI HepG2/W2 [4] | other results
1 | CCN(CC)CCCC(C)Nc1ccnc2cc(Cl)ccc12 (stereo not drawn) [Compound 9, chloroquine] | – | – | – | pIC50 [1]: 7.91
2 | CC(=O)O[C@@H]1CC[C@@]2(C)[C@@H](C1)C[C@@H](OC(C)=O)[C@@H]1[C@@H]2C[C@H](OC(C)=O)[C@]2(C)[C@@H]([C@H](C)CCCNCCNc3ccnc4cc(Cl)ccc34)CC[C@@H]12 [Compound 12, N-(3α,7α,12α-Triacetoxy-5β-cholan-24-yl)-N′-(7′-chloroquinolin-4′-yl)ethane-1,2-diamine] | – | – | – | pIC50 [2]: 7.94; pIC50 [1]: 7.77; pIC50 [3]: 7.56
3 | CC(=O)O[C@H]1C[C@H]2[C@@H]([C@H](OC(C)=O)C[C@@H]3C[C@H](O)CC[C@@]32C)[C@@H]2CC[C@H]([C@H](C)CCCNCCCNc3ccnc4cc(Cl)ccc34)[C@@]12C [Compound 17] | 84/115/90 | 84/115/90 | 84/115/90 | half-life (in vitro): > 1 h
4 | CC(=O)O[C@H]1C[C@H]2[C@@H]([C@H](OC(C)=O)C[C@@H]3C[C@H](NS(C)(=O)=O)CC[C@@]32C)[C@@H]2CC[C@H]([C@H](C)CCCN(C)CCCNc3ccnc4cc(Cl)ccc34)[C@@]12C [Compound 43] | 93/89/139 | 93/89/139 | 93/89/139 | half-life (in vitro): > 1 h
5 | CC(=O)O[C@H]1C[C@H]2[C@@H]([C@H](OC(C)=O)C[C@@H]3C[C@H](N(C)C)CC[C@@]32C)[C@@H]2CC[C@H]([C@H](C)CCCNCCNc3ccnc4cc(Cl)ccc34)[C@@]12C [Compound 50, 24-N-[(7-Chloroquinoline-4-yl)amino]ethylamino-3α-N′,N′-dimethylamino-7α,12α-diacetoxy-5β-cholane] | 714/333/435 | 714/333/435 | 714/333/435 | HLM stability (t1/2) [5]: 60/60 min; MLM stability (t1/2) [6]: 60/60 min
6 | CC(=O)O[C@H]1C[C@H]2[C@@H]([C@H](OC(C)=O)C[C@@H]3C[C@H](N)CC[C@@]32C)[C@@H]2CC[C@H]([C@H](C)CCCN(C)CCNc3ccnc4cc(Cl)ccc34)[C@@]12C [Compound 54, 24-N-Methyl-N-[(7-chloroquinoline-4-yl)amino]ethylamino-3α-amino-7α,12α-diacetoxy-5β-cholane] | 4993/3995/2327 | 4993/3995/2327 | 4993/3995/2327 | HLM stability (t1/2) [5]: 60/60 min; MLM stability (t1/2) [6]: 60/60 min; protection/cure of mice (P. berghei): failed to protect/cure mice; day postinfection on which mice died (P. berghei; po): 13; signs of compound toxicity upon necropsy (P. berghei; po): no signs of tissue damage caused by compound toxicity
7 | CC(=O)O[C@H]1C[C@H]2[C@@H]([C@H](OC(C)=O)C[C@@H]3C[C@H](N(C)C)CC[C@@]32C)[C@@H]2CC[C@H]([C@H](C)CCCN(C)CCNc3ccnc4cc(Cl)ccc34)[C@@]12C [Compound 56, 24-N-Methyl-N-[(7-chloroquinoline-4-yl)amino]ethylamino-3α-N′,N′-dimethylamino-7α,12α-diacetoxy-5β-cholane] | 6824/3920/3176 | 6824/3920/3176 | 6824/3920/3176 | half-life (in vitro): > 1 h
8 | CC(=O)O[C@H]1C[C@H]2[C@@H]([C@H](OC(C)=O)C[C@@H]3C[C@H](N(C)C)CC[C@@]32C)[C@@H]2CC[C@H]([C@H](C)CCCN(C)CCCNc3ccnc4cc(Cl)ccc34)[C@@]12C [Compound 57] | 93/35/71 | 93/35/71 | 93/35/71 | HLM stability (t1/2) [5]: 60/60 min; MLM stability (t1/2) [6]: 60/60 min
9 | CC(=O)O[C@H]1C[C@H]2[C@@H]([C@H](OC(C)=O)C[C@@H]3C[C@H](NC(=O)OC(C)(C)C)CC[C@@]32C)[C@@H]2CC[C@H]([C@H](C)CCCN(CCCNc3ccnc4cc(Cl)ccc34)CCC[C@@H](C)[C@H]3CC[C@H]4[C@@H]5[C@H](OC(C)=O)C[C@@H]6C[C@H](NC(=O)OC(C)(C)C)CC[C@]6(C)[C@H]5C[C@H](OC(C)=O)[C@]34C)[C@@]12C [Compound 59, N,N-Di(3α-amino-tert-butylcarbamate-7α,12α-diacetoxy-5β-cholan-24-yl)-N′-(7′-chloroquinoline-4′-yl)-1,3-propanediamine] | 96/96/96 | 96/96/96 | 96/96/96 | inhibition at 20 µM (BoNT/A LC; at 20 μM): 6%
10 | CC(=O)O[C@H]1C[C@H]2[C@@H]([C@H](OC(C)=O)C[C@@H]3C[C@H](N)CC[C@@]32C)[C@@H]2CC[C@H]([C@H](C)CCCN(CCCNc3ccnc4cc(Cl)ccc34)CCC[C@@H](C)[C@H]3CC[C@H]4[C@@H]5[C@H](OC(C)=O)C[C@@H]6C[C@H](N)CC[C@]6(C)[C@H]5C[C@H](OC(C)=O)[C@]34C)[C@@]12C [Compound 61] | 10/9/7 | 10/9/7 | 10/9/7 | –
11 | N=C(N)c1ccc(Oc2ccc(-c3cc4ccc(C(=N)N)cc4[nH]3)cc2)cc1 [NSC 240898, reference compound] | – | – | – | inhibition at 20 µM (BoNT/A LC): 73.3%
